Values of other authors, collected in US20140044685A1, “NUTRITIONAL COMPOSITIONS HAVING ALPHA-HICA AND CITRULLINE” (NESTEC S.A., priority 2011, published 2014).

Legend:
[1] = piglet stressed with LPS
[2] = test system: intestinal mammalian target of rapamycin (mTOR); conditions: piglet stressed with LPS; leading to increased protein synthesis and anti-inflammatory responses
[3] = malnourished aged animals

Row | Structure (SMILES) | crypt depth [1] | villous height [1] | phosphorylation of intestinal mammalian target of rapamycin (mTOR) [2] | anabolic effect [3]
1 | O=C(O)CCC(=O)C(=O)O [AKG, α-ketoglutarate] | reduced | increased | increased | –
2 | NC(=O)NCCC[C@H](N)C(=O)O [Citrulline, citrulline] | – | – | – | anabolic effect
